The target of the experiment is Recombinant human LSD1 (Homo sapiens, UniProt O60341). Put plainly: LSD1 inhibition assay (HTRF LSD1 Histone H3K4 mono-demethylation assay, me1->me0). Format: biochemical. The following applies: 20 nM recombinant human LSD1, 95 nM H3K4(me1) biotinylated peptide, 15 min preincubation, 60 min at 25° C., read-out: LSD1 inhibition IC50 (nM range). The gist of the method: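 HTRF demethylation (me1->me0) read-out: streptavidin-XL665 and anti-H3K4me0 cryptate added after reaction, ratio measured after 90 min dark. Reaction: 95 nM H3K4me1 biotin-peptide, 20 nM LSD1 (15-min compound pre-incubation), 60 min, 25 °C, buffer pH 8.5 plus FAD and DTT; 4-parameter logistic IC50.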
For orientation: In TR-FRET formats the signal depends on donor and acceptor labels being close together.

By IC50 is commonly meant the concentration at which inhibition is half-maximal.

A value given as a limit tells only on which side of the number the result lay.

For `Cc1nocc1-c1c(CC2CNCCO2)cccc1-c1ccc(C#N)c(F)c1` (stereo not drawn) [Example 35, 3-fluoro-2′-(3-methyl-1,2-oxazol-4-yl)-3′-[(morpholin-2-yl)methyl]-[1,1′-biphenyl]-4-carbonitrile], the IC50 fell in the range of 25 to 100 nM.

With `N#Cc1ccc(-c2cccc(CC3CNCCO3)c2-c2ccns2)cc1F` (stereo not drawn) [Example 36, 3-fluoro-3′-[(morpholin-2-yl)methyl]-2′-(1,2-thiazol-5-yl)-[1,1′-biphenyl]-4-carbonitrile], the IC50 lay in the range of 10 to 25 nM.

For `Cc1ncsc1-c1c(CC2CNCCO2)cccc1-c1ccc(C#N)cc1` (stereo not drawn) [Example 38, 2′-(4-methyl-1,3-thiazol-5-yl)-3′-[(morpholin-2-yl)methyl]-[1,1′-biphenyl]-4-carbonitrile], the IC50 fell in the range of 10 to 25 nM.

`Cc1cc(CC2CNCCO2)c(-c2cncs2)c(-c2ccc(C#N)cc2)c1` (stereo not drawn) [Example 39, 5′-methyl-3′-[(morpholin-2-yl)methyl]-2′-(1,3-thiazol-5-yl)-[1,1′-biphenyl]-4-carbonitrile]: the IC50 was 10 to 25 nM.

With `N#Cc1ccc(-c2cccc(CC3CNCCO3)c2N2CC(F)C2)cc1F` (stereo not drawn) [Example 40, 3-fluoro-2′-(3-fluoroazetidin-1-yl)-3′-[(morpholin-2-yl)methyl]-[1,1′-biphenyl]-4-carbonitrile], the IC50 was in the range of 100 to 1000 nM.

For the compound `N#Cc1ccc(-c2cccc(CC3CNCCO3)c2C2CC2)cc1F` (stereo not drawn) [Example 42, 2′-cyclopropyl-3-fluoro-3′-[(morpholin-2-yl)methyl]-[1,1′-biphenyl]-4-carbonitrile], the IC50 fell in the range of 100 to 1000 nM.

On to `Cc1cc(-c2cccc(CC3CNCCO3)c2-c2ccns2)ccc1C#N` (stereo not drawn) [Example 43, 3-methyl-3′-[(morpholin-2-yl)methyl]-2′-(1,2-thiazol-5-yl)-[1,1′-biphenyl]-4-carbonitrile], for which the IC50 lay in the range of 25 to 100 nM.

On to `N#Cc1ccc(-c2cc(CC3CNCCO3)ccc2N2CCC2)cc1F` (stereo not drawn) [Example 44, 2′-(azetidin-1-yl)-3-fluoro-5′-[(morpholin-2-yl)methyl]-[1,1′-biphenyl]-4-carbonitrile], for which the IC50 lay in the range of 100 to 1000 nM.

For the compound `Cc1cnsc1-c1c(CC2CNCCO2)cccc1-c1ccc(C#N)c(F)c1` (stereo not drawn) [Example 45, 3-fluoro-2′-(4-methyl-1,2-thiazol-5-yl)-3′-[(morpholin-2-yl)methyl]-[1,1′-biphenyl]-4-carbonitrile], the IC50 is 100 to 1000 nM.

For the compound `N#Cc1ccc(-c2cccc(CC3CNCCCO3)c2N2CCC2)cc1F` (stereo not drawn) [Example 46, 2′-(azetidin-1-yl)-3-fluoro-3′-[(1,4-oxazepan-2-yl)methyl]-[1,1′-biphenyl]-4-carbonitrile], the IC50 fell in the range of 25 to 100 nM.

For `N#Cc1ccc(-c2cccc(CC3CNCCO3)c2-c2cnco2)cc1F` (stereo not drawn) [Example 47, 3-fluoro-3′-[(morpholin-2-yl)methyl]-2′-(1,3-oxazol-5-yl)-[1,1′-biphenyl]-4-carbonitrile], the IC50 was 25 to 100 nM.

On to `N#Cc1ccc(-c2cccc(CC3CNCCO3)c2-c2cncs2)cc1F` (stereo not drawn) [Example 48, 3-fluoro-3′-[(morpholin-2-yl)methyl]-2′-(1,3-thiazol-5-yl)-[1,1′-biphenyl]-4-carbonitrile], for which the IC50 lay in the range of 10 to 25 nM.

For `N#Cc1ccc(-c2cc(F)cc(CC3CNCCO3)c2-c2cnco2)cc1F` (stereo not drawn) [Example 49, 3,5′-difluoro-3′-[(morpholin-2-yl)methyl]-2′-(1,3-oxazol-5-yl)-[1,1′-biphenyl]-4-carbonitrile], the IC50 was 25 to 100 nM.

With `N#Cc1ccc(-c2cccc(CC3CNCCO3)c2N2CCC2)cc1` (stereo not drawn) [Example 50, 2′-(azetidin-1-yl)-3′-[(morpholin-2-yl)methyl]-[1,1′-biphenyl]-4-carbonitrile], the IC50 was 100 to 1000 nM.

As to `Cc1ncoc1-c1c(CC2CNCCO2)cccc1-c1ccc(C#N)c(F)c1` (stereo not drawn) [Example 51, 3-fluoro-2′-(4-methyl-1,3-oxazol-5-yl)-3′-[(morpholin-2-yl)methyl]-[1,1′-biphenyl]-4-carbonitrile], the IC50 is 25 to 100 nM.

With `COC1CCN(c2ccc(CC3CNCCO3)cc2-c2ccc(C#N)c(F)c2)CC1` (stereo not drawn) [Example 52, 3-fluoro-2′-(4-methoxypiperidin-1-yl)-5′-[(morpholin-2-yl)methyl]-[1,1′-biphenyl]-4-carbonitrile], the IC50 was 100 to 1000 nM.

For the compound `Cc1cc(CC2CNCCO2)c(-c2ccns2)c(-c2ccc(C#N)cc2)c1` (stereo not drawn) [Example 53, 5′-methyl-3′-[(morpholin-2-yl)methyl]-2′-(1,2-thiazol-5-yl)-[1,1′-biphenyl]-4-carbonitrile], the IC50 is 10 to 25 nM.

On to `COCC1CN(c2ccc(CC3CNCCO3)cc2-c2ccc(C#N)c(F)c2)C1` (stereo not drawn) [Example 55, 3-fluoro-2′-[3-(methoxymethyl)azetidin-1-yl]-5′-[(morpholin-2-yl)methyl]-[1,1′-biphenyl]-4-carbonitrile], for which the IC50 fell in the range of 100 to 1000 nM.

On to `Cn1ncc2cc(-c3ccc(CC4CNCCO4)cc3-c3ccc(C#N)c(F)c3)cnc21` (stereo not drawn) [Example 56, 3-fluoro-2′-{1-methyl-1H-pyrazolo[3,4-b]pyridin-5-yl}-5′-[(morpholin-2-yl)methyl]-[1,1′-biphenyl]-4-carbonitrile], for which the IC50 was in the range of 25 to 100 nM.

With `N#Cc1ccc(-c2cc(C3CC3)cc(CC3CNCCO3)c2-c2cncs2)cc1F` (stereo not drawn) [Example 57, 5′-cyclopropyl-3-fluoro-3′-[(morpholin-2-yl)methyl]-2′-(1,3-thiazol-5-yl)-[1,1′-biphenyl]-4-carbonitrile], the IC50 is 10 to 25 nM.

Turning to `N#Cc1ccc(-c2cc(CC3CNCCO3)ccc2N2CCC(c3ncccn3)CC2)cc1F` (stereo not drawn) [Example 59, 3-fluoro-5′-[(morpholin-2-yl)methyl]-2′-[4-(pyrimidin-2-yl)piperidin-1-yl]-[1,1′-biphenyl]-4-carbonitrile], the IC50 was 100 to 1000 nM.

As for `N#Cc1ccc(-c2cc(CC3CNCCO3)ccc2N2CCC(O)(C3CC3)CC2)cc1F` (stereo not drawn) [Example 60, 2′-(4-cyclopropyl-4-hydroxypiperidin-1-yl)-3-fluoro-5′-[(morpholin-2-yl)methyl]-[1,1′-biphenyl]-4-carbonitrile], the IC50 was in the range of 25 to 100 nM.

Turning to `COC1(C)CCN(c2ccc(CC3CNCCO3)cc2-c2ccc(C#N)c(F)c2)CC1` (stereo not drawn) [Example 61, 3-fluoro-2′-(4-methoxy-4-methylpiperidin-1-yl)-5′-[(morpholin-2-yl)methyl]-[1,1′-biphenyl]-4-carbonitrile], the IC50 was in the range of 100 to 1000 nM.

On to `N#Cc1ccc(-c2cc(CC3CNCCO3)ccc2N2CC3(CCOCC3)C2)cc1F` (stereo not drawn) [Example 62, 3-fluoro-5′-[(morpholin-2-yl)methyl]-2′-{7-oxa-2-azaspiro[3.5]nonan-2-yl}-[1,1′-biphenyl]-4-carbonitrile], for which the IC50 was 100 to 1000 nM.

As to `CCOCC1(O)CCN(c2ccc(CC3CNCCO3)cc2-c2ccc(C#N)c(F)c2)CC1` (stereo not drawn) [Example 63, 2′-[4-(ethoxymethyl)-4-hydroxypiperidin-1-yl]-3-fluoro-5′-[(morpholin-2-yl)methyl]-[1,1′-biphenyl]-4-carbonitrile], the IC50 was 100 to 1000 nM.

For `N#Cc1ccc(-c2cccc(CC3CNCCO3)c2C2=CCCC2)cc1F` (stereo not drawn) [Example 64, 2′-(cyclopent-1-en-1-yl)-3-fluoro-3′-[(morpholin-2-yl)methyl]-[1,1′-biphenyl]-4-carbonitrile], the IC50 fell in the range of 25 to 100 nM.

As to `N#Cc1ccc(-c2cccc(CC3CNCCO3)c2-c2ncco2)cc1F` (stereo not drawn) [Example 65, 3-fluoro-3′-[(morpholin-2-yl)methyl]-2′-(1,3-oxazol-2-yl)-[1,1′-biphenyl]-4-carbonitrile], the IC50 was > 1000 nM.

Consider `CC(C)C1(O)CCN(c2ccc(CC3CNCCO3)cc2-c2ccc(C#N)c(F)c2)C1` (stereo not drawn) [Example 66, 3-fluoro-2′-[3-hydroxy-3-(propan-2-yl)pyrrolidin-1-yl]-5′-[(morpholin-2-yl)methyl]-[1,1′-biphenyl]-4-carbonitrile], for which the IC50 was 100 to 1000 nM.

For `COCC1CCN(c2ccc(CC3CNCCO3)cc2-c2ccc(C#N)c(F)c2)CC1` (stereo not drawn) [Example 67, 3-fluoro-2′-[4-(methoxymethyl)piperidin-1-yl]-5′-[(morpholin-2-yl)methyl]-[1,1′-biphenyl]-4-carbonitrile], the IC50 was in the range of 25 to 100 nM.

Consider `COCc1ccc(-c2ccc(CC3CNCCO3)cc2-c2ccc(C#N)c(F)c2)c(F)c1` (stereo not drawn) [Example 68, 3-fluoro-2′-[2-fluoro-4-(methoxymethyl)phenyl]-5′-[(morpholin-2-yl)methyl]-[1,1′-biphenyl]-4-carbonitrile], for which the IC50 is 25 to 100 nM.

Turning to `Cc1ncc(-c2c(CC3CNCCO3)cccc2-c2ccc(C#N)c(F)c2)o1` (stereo not drawn) [Example 69, 3-fluoro-2′-(2-methyl-1,3-oxazol-5-yl)-3′-[(morpholin-2-yl)methyl]-[1,1′-biphenyl]-4-carbonitrile], the IC50 was in the range of 100 to 1000 nM.

For `N#Cc1ccc(-c2cc(CC3CNCCO3)ccc2N2CCC3(CCOC3)CC2)cc1F` (stereo not drawn) [Example 70, 3-fluoro-5′-[(morpholin-2-yl)methyl]-2′-{2-oxa-8-azaspiro[4.5]decan-8-yl}-[1,1′-biphenyl]-4-carbonitrile], the IC50 is 25 to 100 nM.

As for `N#Cc1ccc(-c2cccc(CC3CCCNC3)c2-c2ccns2)cc1F` (stereo not drawn) [Example 71, 3-fluoro-3′-[(piperidin-3-yl)methyl]-2′-(1,2-thiazol-5-yl)-[1,1′-biphenyl]-4-carbonitrile], the 50% inhibitory concentration (IC50) is < 10 nM.

As to `N#Cc1ccc(-c2cc(CC3CNCCO3)ccc2OC[C@@H]2CCCOC2)cc1F` (stereo partly drawn) [Example 72, 3-fluoro-5′-[(morpholin-2-yl)methyl]-2′-{[(3R)-oxa-3-yl]methoxy}-[1,1′-biphenyl]-4-carbonitrile], the IC50 is 100 to 1000 nM.

For the compound `N#Cc1ccc(-c2cc(CC3CNCCO3)ccc2N2CCC(C3CCCO3)CC2)cc1F` (stereo not drawn) [Example 73, 3-fluoro-5′-[(morpholin-2-yl)methyl]-2′-[4-(oxolan-2-yl)piperidin-1-yl]-[1,1′-biphenyl]-4-carbonitrile], the IC50 lay within 25 to 100 nM.

Consider `COCC1CCN(c2ccc(CC3CNCCCO3)cc2-c2ccc(C#N)c(F)c2)CC1` (stereo not drawn) [Example 74, 3-fluoro-2′-[4-(methoxymethyl)piperidin-1-yl]-5′-[(1,4-oxazepan-2-yl)methyl]-[1,1′-biphenyl]-4-carbonitrile], for which the IC50 was in the range of 10 to 25 nM.

The values are drawn from patent US20260209214A1, “LSD1 MODULATORS” (RECURSION PHARMACEUTICALS, INC., priority 2022, published 2026).
